Data set [1] deals with T1, PhKAT (Pyrococcus horikoshii, UniProt O57946). Briefly: Isothermal titration calorimetry for cofactor and substrate binding. As to conditions: PLP binding to PhKAT; judged from shape of binding curve. Also noted: species or system Pyrococcus horikoshii OT3. The source says:
To avoid air bubbles, we degassed solutions under vacuum before use. […] Power peaks were integrated, and the resultant reaction […] were plotted against the molar cofactor and/or substrate/protein ratios and fitted using the “sequential binding sites” model according to the manufacturer's instructions with origin version 5.0 (MicroCal Software), thus yielding the dissociation constant K d.

Data set [2] deals with T1, PhKAT. As to the kind of experiment: Spectrophotometric titration of PhKAT with PLP (absorbance change at 360 nm, 2-site binding model with hill slopes). As to conditions: 25°C. Also noted: species or system Pyrococcus horikoshii OT3. On the procedure:
PhKAT was added to a 20 µM (final concentration) PLP solution in a final volume of 500 µL of 50 mM HEPES–NaOH buffer (pH 7.5) containing 100 mM NaCl. Titration of PhKAT with PLP was monitored by absorption spectroscopy. Aliquots of PLP (1, 2, 4, 8, 16, 32, and 64 µM) were added to the cuvette containing PhKAT at 25°C. Spectra were recorded after the addition of PLP, and the PLP-binding constant (K d) was calculated from the difference in absorbance at 360 nm, and the PLP-binding curve for PhKAT was obtained by the 2-site binding model with variable slopes using prism5.

Data set [3] concerns the target T1, PhKAT. As to the kind of experiment: KAT transaminase kinetics, KYNA production from KYN monitored at 332 nm. Conditions: 100 µM KYN; keto acid as amino acceptor. On the procedure:
KYNA production was monitored spectrophotometrically using a U-2810 UV–Vis spectrophotometer (Hitachi).
The transaminase abilities of KAT were assayed by measuring the rate of the KYNA production. […] KYNA production was monitored by the increase in A332 at 25°C. The quantities of KYNA were determined spectroscopically with an extinction coefficient of 9.8 mM^−1⋅cm^−1 at 332 nm.

Substrate in data set [4]: CCC(=O)C(=O)O
Briefly: purified protein, by the assay type. As to conditions: other: 100 µM KYN; keto acid as amino acceptor; pH 7.5; 25.0 °C.
Experimental: (§1) PLP-dependent KAT activity was assayed in 500 µL of 50 mM HEPES–NaOH buffer (pH 7.5) containing 100 mM NaCl, 10 µM PhKAT, 15 µM PLP, 20 µM KYN, and 64 µM 2OG. Assays were performed at room temperature (25°C), and the reaction was initiated by the addition of 2OG. KYNA production was monitored spectrophotometrically using a U-2810 UV–Vis spectrophotometer (Hitachi).
(§2) The transaminase abilities of KAT were assayed by measuring the rate of the KYNA production. In a total volume of 500 µL, the reaction mixture contained 10 µM PhKAT (dimer: 5 µM); 12 µM PLP; 0.08, 0.1, 0.4, 0.8, 1, 1.2, 2, 4, 6, 8, 12, 16, 20 and 24 µM 2OG; 0.02, 0.08, 0.1, 0.4, 0.8, 1, 1.2, 2, 4, 6, 8, 12, 16, 20 and 24 µM OXA; 50, or 100 µM KYN; 50 mM HEPES–NaOH buffer (pH 7.5); 100 mM NaCl; 0.4, 0.8, 1, 4, 8, 12 and 16 µM α-KMB, and/or 0.4, 0.8, 1, 4, 8, 12, 16 and 20 µM α-KBA. KYNA production was monitored by the increase in A332 at 25°C. The quantities of KYNA were determined spectroscopically with an extinction coefficient of 9.8 mM^−1⋅cm^−1 at 332 nm.

Substrate in data set [5]: CSCCC(=O)C(=O)O
Briefly: purified protein, by the assay type. As to conditions: other: 100 µM KYN; keto acid as amino acceptor; pH 7.5; 25.0 °C.
Experimental: as §1, §2

Data set [6] concerns the molecule itself. Briefly: crystal structure; co-crystals of PhKAT with PLP (1:1), PLP and 2OG (1:1:1 or 1:1:2), sitting-drop vapor diffusion at 4°C; space group C2, two chains in the asymmetric unit.

Read-outs that look alike come from different tables or passages of the source.

The values below come from paper PMC3391261, “Characteristic Features of Kynurenine Aminotransferase Allosterically Regulated by (Alpha)-Ketoglutarate in Cooperation with Kynurenine” (PLoS ONE, 2012).

As for `Cc1ncc(COP(=O)(O)O)c(C=O)c1O` [PLP, Pyridoxal phosphate], the “dissociation constant (apparent) of second binding site in PhKAT” value at PhKAT [1] is recorded as “approximately femtomole order”. Moreover, the Kd on PhKAT [2] (10 µM PhKAT, pH 7.5, read-out: Kd1 (dissociation constant for PLP, first binding site)) came out at 25.5 µM; on PhKAT [2] (10 µM PhKAT, pH 7.5, read-out: Kd2 (dissociation constant for PLP, second binding site)), 1.77 µM; at PhKAT [2] (20 µM PhKAT, pH 7.5, read-out: Kd1 (dissociation constant for PLP, first binding site)) it was 9.65 µM; at PhKAT [2] (20 µM PhKAT, pH 7.5, read-out: Kd2 (dissociation constant for PLP, second binding site)), 1.92 µM.
For the molecule `CCC(=O)C(=O)O` [α-KBA, 2-ketobutyric acid], the “H-value (allosteric sigmoidal model)” value on PhKAT [3] is 1.79.
Still for that read-out and setting: the figure for `CSCCC(=O)C(=O)O` [α-KMB, α-keto-γ-(methylthio) butyric acid] is 3.57.

B1: PhKAT (Pyrococcus horikoshii OT3) (protein)
chain: MHEDVQLNIYVHSQEGIGMEENIKSMLGDVERFFSKKALEMRASEVRELLKLVETSDIISLAGGLPNPKTFPKEIIRDILVEIMEKYADKALQYGTTKGFTPLRETLMKWLGKRYGISQDNDIMITSGSQQALDLIGRVFLNPGDIVVVEAPTYLAALQAFNFYEPQYIQIPLDDEGMKVEILEEKLKELKSQGKKVKVVYTVPTFQNPAGVTMNEDRRKYLLELASEYDFIVVEDDPYGELRYSGNPEKKIKALDNEGRVIYLGTFSKILAPGFRIGWMVGDPGIIRKMEIAKQSTDLCTNVFGQVVAWRYVDGGYLEKHIPEIRKFYKPRRDAMLEALEEFMPEGVKWTKPEGGMFIWVTLPDGIDSKKMLERAIKKGVAYVPGEAFYAHRDVKNTMRLNFTYVDEDKIMEGIKRLAETIKEELKA
By Km is commonly meant the substrate concentration at which the rate is half of its maximum. Turning to B1, the Km in data set [4] was 1.73 µM; in data set [5] it was 2.41 µM.

B2: Kynurenine aminotransferase from Pyrococcus horikoshii OT3 (enzyme, UniProt O57946 1-428, looked up)
chain: MHEDVQLNIYVHSQEGIGMEENIKSMLGDVERFFSKKALEMRASEVRELLKLVETSDIISLAGGLPNPKTFPKEIIRDILVEIMEKYADKALQYGTTKGFTPLRETLMKWLGKRYGISQDNDIMITSGSQQALDLIGRVFLNPGDIVVVEAPTYLAALQAFNFYEPQYIQIPLDDEGMKVEILEEKLKELKSQGKKVKVVYTVPTFQNPAGVTMNEDRRKYLLELASEYDFIVVEDDPYGELRYSGNPEKKIKALDNEGRVIYLGTFSKILAPGFRIGWMVGDPGIIRKMEIAKQSTDLCTNVFGQVVAWRYVDGGYLEKHIPEIRKFYKPRRDAMLEALEEFMPEGVKWTKPEGGMFIWVTLPDGIDSKKMLERAIKKGVAYVPGEAFYAHRDVKNTMRLNFTYVDEDKIMEGIKRLAETIKEELKA
modifications: PLP in a Schiff-base link with Lys269
notes: Kynurenine aminotransferase (PhKAT) of Pyrococcus horikoshii OT3, 428 residues; residues 25-428 seen in the crystal structures, residues 1-24 and the N-terminal His-tag disordered; also called PhKAT; KAT; source: E. coli BL21-CodonPlus (DE3), pET28a-PhKAT, purified (His TALON cartridge); not shown: His6, N-terminal, kept
By stoichiometry N is commonly meant the number of molecules, sites or subunits per partner or assembly. As to B2, the “stoichiometry N” value in data set [6] was determined as 2.
